Test results taken from patent publication US20260022143A1, “Cyclic Peptide Inhibitors of IL-23” (JANSSEN PHARMACEUTICA NV, priority 2022, published 2026).
Structures can show the parent of a compound that is named as a salt. Positions of bridges follow the written chain, without caps; N, C: chain ends. Non-standard residues stand in square brackets, D forms with d. Residues, ends and D or L forms follow the SMILES beside them. *: point of attachment. Me3N+(CH2)2O(CH2)2O(CH2)2CO = C[N+](C)(C)CCOCCOCCC(=O)*; Trp(7-Me) = Cc1cccc2c(C[C@H](N)C(=O)O)c[nH]c12; Hexanoyl(6-NMe3+) = C[N+](C)(C)CCCCCC(=O)*; dLys(Me3) = C[N+](C)(C)CCCC[C@@H](N)C(=O)O; Dab(NMeAc) = CC(=O)N(C)CC[C@H](N)C(=O)O; 2Nal = N[C@@H](Cc1ccc2ccccc2c1)C(=O)O; AEF = NCCOc1ccc(C[C@H](N)C(=O)O)cc1; 3Pal = N[C@@H](Cc1cccnc1)C(=O)O; X7 = COCCOCCOCCOCCOCCOCCC(=O)*; Pen = CC(C)(S)[C@H](N)C(=O)O; Thp = NC1(C(=O)O)CCOCC1; Me2NCH2CH2 = CN(C)CC*; Tfa = O=C(C(F)(F)F)*; Sar = CNCC(=O)O

Columns and labels:
[1] = Exposed Polar Surface Area (EPSA); type: physicochemical; settings: SFC on Chirex 3014 column; sample 1 mM DMSO stock; read-out: EPSA
Outline: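 Compounds, as 1 mM DMSO stock, were injected in duplicate onto an SFC Chirex 3014 column at 35 °C and eluted with a CO2/methanol (20 mM ammonium formate) gradient. EPSA values in Å^2 were derived from retention times using a linear fit to eight calibration standards, reinjected every 20 compounds.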

[2] = target: T1, IL-23R (Homo sapiens, UniProt Q5VWK5); test: IL23R Reporter Assay; type: cell-based; settings: HEK293 cells containing IL-23R, IL-12RP1 and STAT-inducible firefly luciferase reporter; 10 ng/mL IL-23 (EC90); 5 h at 37° C.; read-out: IL23R Reporter Assay
T1 construct: host or cells: HEK293
T1 sequence (Q5VWK5 24-629): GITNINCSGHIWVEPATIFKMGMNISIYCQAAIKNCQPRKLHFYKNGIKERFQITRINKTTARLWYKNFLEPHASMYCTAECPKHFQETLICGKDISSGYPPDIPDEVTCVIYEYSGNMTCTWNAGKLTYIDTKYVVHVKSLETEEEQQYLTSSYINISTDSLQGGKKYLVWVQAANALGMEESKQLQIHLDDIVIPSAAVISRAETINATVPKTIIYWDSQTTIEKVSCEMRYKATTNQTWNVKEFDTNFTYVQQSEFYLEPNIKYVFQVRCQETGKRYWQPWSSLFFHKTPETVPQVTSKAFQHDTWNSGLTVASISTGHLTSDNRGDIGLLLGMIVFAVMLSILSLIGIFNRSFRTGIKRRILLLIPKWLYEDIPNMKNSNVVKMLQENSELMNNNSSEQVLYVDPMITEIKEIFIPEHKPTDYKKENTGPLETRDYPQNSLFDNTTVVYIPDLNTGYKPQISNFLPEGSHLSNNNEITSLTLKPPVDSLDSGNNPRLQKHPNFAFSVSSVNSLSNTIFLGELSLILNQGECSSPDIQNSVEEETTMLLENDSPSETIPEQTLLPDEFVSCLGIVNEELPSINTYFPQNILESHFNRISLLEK

SMILES | EPSA [1] [A^2] | IC50 [2] [nM]
COCCOCCOCCOCCOCCOCCC(=O)N[C@@H]1C(=O)N[C@@H](CC(N)=O)C(=O)N[C@@H]([C@@H](C)O)C(=O)N[C@@H](Cc2c[nH]c3c(C)cccc23)C(=O)N[C@@H](CCCCNC(C)=O)C(=O)N[C@H](C(=O)N[C@@H](Cc2ccc(OCCN)cc2)C(=O)N[C@@H](Cc2ccc3ccccc3c2)C(=O)NC2(C(=O)N[C@@H](CCCCNC(C)=O)C(=O)N[C@@H](CC(N)=O)C(=O)N[C@@H](Cc3cccnc3)C(=O)N(C)CC(N)=O)CCOCC2)C(C)(C)SSC1(C)C [compound 64] (X7-[Pen]NT[Trp(7-Me)]K(Ac)[Pen][AEF][2Nal][Thp]K(Ac)N[3Pal][Sar]-NH2; disulfide 1-6 (inferred)) | 160 | 4.9
CC(=O)N(C)CC[C@@H]1NC(=O)[C@H](Cc2c[nH]c3c(C)cccc23)NC(=O)[C@H]([C@@H](C)O)NC(=O)[C@H](CC(N)=O)NC(=O)[C@@H](NC(=O)C(F)(F)F)C(C)(C)SSC(C)(C)[C@@H](C(=O)N[C@@H](Cc2ccc(OCCN(C)C)cc2)C(=O)N[C@@H](Cc2ccc3ccccc3c2)C(=O)NC2(C(=O)N[C@@H](CCC(=O)N(C)C)C(=O)N[C@@H](CC(N)=O)C(=O)N[C@@H](Cc3cccnc3)C(=O)N(C)CC(N)=O)CCOCC2)NC1=O [compound 71] (Tfa-[Pen]NT[Trp(7-Me)][Dab(NMeAc)][Pen]Y(Me2NCH2CH2)[2Nal][Thp]E(NMe2)N[3Pal][Sar]-NH2; disulfide 1-6 (inferred)) | 146 | 2.1
CC(=O)NCCCC[C@@H]1NC(=O)[C@H](Cc2c[nH]c3c(C)cccc23)NC(=O)[C@H]([C@@H](C)O)NC(=O)[C@H](CC(N)=O)NC(=O)[C@@H](NC(=O)[C@@H](CCCC[N+](C)(C)C)NC(=O)C(F)(F)F)C(C)(C)SSC(C)(C)[C@@H](C(=O)N[C@@H](Cc2ccc(OCCN)cc2)C(=O)N[C@@H](Cc2ccc3ccccc3c2)C(=O)NC2(C(=O)N[C@@H](CCCCNC(C)=O)C(=O)N[C@@H](CC(N)=O)C(=O)N[C@@H](Cc3cccnc3)C(=O)N(C)CC(N)=O)CCOCC2)NC1=O [compound 80] (Tfa-[dLys(Me3)][Pen]NT[Trp(7-Me)]K(Ac)[Pen][AEF][2Nal][Thp]K(Ac)N[3Pal][Sar]-NH2; disulfide 2-7 (inferred)) | 157 | 4.3
CC(=O)NCCCC[C@@H]1NC(=O)[C@H](Cc2c[nH]c3c(C)cccc23)NC(=O)[C@H]([C@@H](C)O)NC(=O)[C@H](CC(N)=O)NC(=O)[C@@H](NC(=O)[C@@H](CCCCNC(=O)CCCCC[N+](C)(C)C)NC(C)=O)C(C)(C)SSC(C)(C)[C@@H](C(=O)N[C@@H](Cc2ccc(OCCN)cc2)C(=O)N[C@@H](Cc2ccc3ccccc3c2)C(=O)NC2(C(=O)N[C@@H](CCCCNC(C)=O)C(=O)N[C@@H](CC(N)=O)C(=O)N[C@@H](Cc3cccnc3)C(=O)N(C)CC(N)=O)CCOCC2)NC1=O [compound 87] (Ac-[dK](Hexanoyl(6-NMe3+))[Pen]NT[Trp(7-Me)]K(Ac)[Pen][AEF][2Nal][Thp]K(Ac)N[3Pal][Sar]-NH2; disulfide 2-7 (inferred)) | 159 | 4.2
CC(=O)NCCCC[C@@H]1NC(=O)[C@H](Cc2c[nH]c3c(C)cccc23)NC(=O)[C@H]([C@@H](C)O)NC(=O)[C@H](CC(N)=O)NC(=O)[C@@H](NC(=O)CCOCCOCC[N+](C)(C)C)C(C)(C)SSC(C)(C)[C@@H](C(=O)N[C@@H](Cc2ccc(OCCN)cc2)C(=O)N[C@@H](Cc2ccc3ccccc3c2)C(=O)NC2(C(=O)N[C@@H](CCCCNC(C)=O)C(=O)N[C@@H](CC(N)=O)C(=O)N[C@@H](Cc3cccnc3)C(=O)N(C)CC(N)=O)CCOCC2)NC1=O [compound 90, cPEG3aCO-Pen(3)-N-T-7MeW-K(Ac)-Pen(3)-AEF-2Nal-THP-K(Ac)-N-3Pya-Sar-CONH2] ({Me3N+(CH2)2O(CH2)2O(CH2)2CO}-[Pen]NT[Trp(7-Me)]K(Ac)[Pen][AEF][2Nal][Thp]K(Ac)N[3Pal][Sar]-NH2; disulfide 1-6) | 164 | 3.7
